Experiment [1] addresses T1, A. sobria ProAP (Aeromonas sobria, UniProt P46547). The experiment in a line: Proline removal from peptide 8 by ProAP before N-terminal labeling (UPLC-MS). The class given is biochemical. The protocol: Peptide (100 μM) was incubated with ProAP (4 μM) in 20 mM Tris, pH 8.5, 100 mM NaCl for 1 h at 37° C. One half of the reaction (40 μL) was set aside for later UPLC-MS analysis, while the other half was mixed with 40 μL of FAM-CO-SR (400 μM), sodium 2-mercaptoethanesulfonate (2 mM), and TCEP (2.5 mM) in PBS (H 7.5). The mixture was incubated at room temperature for 5 h and analyzed by UPLC-MS.
We first tested the feasibility of generating an N-terminal cysteine by ProAP and specific N-terminal conjugation with a peptide as substrate. […] The reaction mixture was next treated with an excess of fluorescein 2-mercaptoethanesulfonate thioester (FAM-CO-SR; 4 equivalents) in the presence of 2-mercaptoethanesulfonate (2-MES) and TCEP in a phosphate buffer (pH 7.5).

The target in experiment [2] is T1, A. sobria ProAP. The experiment in a line: ProAP activity assay (kinetic constants of A. sobria ProAP against selected peptide substrates). The class given is biochemical. The settings on record: role: substrate; for decrease in catalytic activity on substitution of Ala for Gly at P2′: peptide 6 compared with 9, peptide 10 compared with 8; for kcat/KM: PBS pH 7.4, 2 mM DTT, 0-500 μM peptide, 0.5-25 nM ProAP, mean ± SD of three independent sets of experiments; for change in catalytic activity on replacement of His at P3′ with Gly or Ser: peptides 1 and 9 or peptides 3 and 6 compared. The protocol: A typical assay reaction (total volume of 100 μL) contained PBS (10 mM Na2HPO4, 1.8 mM KH2PO4, 137 mM NaCl, 2.7 mM KCl, 2 mM DTT pH 7.4) and 0-500 μM peptide substrate. The reaction was initiated by the addition of ProAP (final concentration of 0.5-25 nM) and quenched after 5-30 min by the addition of 100 μL of 10% TFA. The reaction mixture was centrifuged at 15,000 rpm in a microcentrifuge for 5 min, and the clear supernatant was analyzed on a Waters Acquity UPLC-MS equipped with a BEH C18 column (1.7 μm, 2.1 mm I.D., 100 mm length). The column was eluted with a linear gradient of acetonitrile (0-25% over 8 min) in water containing 0.05% TFA. The percentage of substrate-to-product conversion was determined by comparing the peak areas of the remaining substrate and the reaction product (monitored at 280 nm) and kept at ≤20%. The initial rates were calculated from the conversion percentages and plotted versus [S]. Data fitting against the Michaelis-Menten equation V=Vmax[S]/(KM+[S]) or the simplified equation V=kcat[E][S]/KM (when KM>>[S]) gave the kinetic constants kcat, KM, and/or kcat/KM.
To confirm the screening results, we individually synthesized a panel of peptides and determined their kinetic properties toward A. sobria ProAP (Table 1). Peptides 1-6 are representative (preferred) sequences selected from the library, while peptide 7 is the consensus sequence based on the screening results. Peptide 8 is a variant of peptide 7, containing a proline (instead of a lysine) at the P5′ position. We anticipated that a proline residue at this position would improve the proteolytic stability of the peptide. Peptide 9 is a variant of peptide 6 (substitution of Gly for Ala at the P2′ position) and was designed to test the importance of a Gly residue at the P2′ position. Peptide 10 is also a variant of peptide 6 but contains a Pro at position P5′ (in place of Lys) to impart proteolytic stability. Peptide 11 is derived from a colorless bead during library screening (Table C) and expected to be a poor substrate of ProAP (“negative” control). All peptides contained a Tyr at the P6′ position, to facilitate concentration measurement as well as monitoring the enzymatic reactions by UPLC (at 280 nm).

No end group written: not given here.

T1 sequence (P46547 whole entry, added parts left off): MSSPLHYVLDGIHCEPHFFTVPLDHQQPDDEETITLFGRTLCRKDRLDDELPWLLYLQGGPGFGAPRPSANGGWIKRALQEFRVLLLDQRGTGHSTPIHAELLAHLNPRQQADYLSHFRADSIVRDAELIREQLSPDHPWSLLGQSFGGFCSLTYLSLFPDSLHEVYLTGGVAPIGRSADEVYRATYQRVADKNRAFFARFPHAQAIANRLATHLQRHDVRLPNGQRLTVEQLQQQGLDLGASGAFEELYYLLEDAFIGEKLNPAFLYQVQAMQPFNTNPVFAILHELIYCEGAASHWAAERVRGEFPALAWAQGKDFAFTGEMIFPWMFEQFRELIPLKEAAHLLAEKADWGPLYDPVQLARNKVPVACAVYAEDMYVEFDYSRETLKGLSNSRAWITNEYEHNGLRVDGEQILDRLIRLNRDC

Take `O=C(O)CCP(CCC(=O)O)CCC(=O)O` [TCEP, tris(carboxyethyl)phosphine, reference compound]: the “inhibition of A. sobria ProAP activity” value against A. sobria ProAP [1] (role: inhibitor) is recorded as “strongly inhibits”.
In the case of PCAHKAY-NH2 [Peptide 6, PCAHKAY], the “decrease in catalytic activity on substitution of Ala for Gly at P2′” value at A. sobria ProAP [2] was 2- to 3 fold.
Take PCAHKPY-NH2 [Peptide 10, PCAHKPY]: on A. sobria ProAP [2], the kcat/KM is given as 2.8 ± 0.8 ×10^5 M^−1 s^−1 and the “decrease in catalytic activity on substitution of Ala for Gly at P2′” value is 2- to 3 fold.
For PCASKAY-NH2 [Peptide 3, PCASKAY], at A. sobria ProAP [2], the kcat/KM is 3.8 ± 0.4 ×10^5 M^−1 s^−1 and the “change in catalytic activity on replacement of His at P3′ with Gly or Ser” value is at most 1.3 fold.
Regarding PCEFTRY-NH2 [Peptide 5, PCEFTRY], at A. sobria ProAP [2], the kcat/KM was 3.2 ± 0.9 ×10^5 M^−1 s^−1.
With PCGGKAY-NH2 [Peptide 1, PCGGKAY], on A. sobria ProAP [2], the kcat/KM is listed as 7.0 ± 1.2 ×10^5 M^−1 s^−1 and the “change in catalytic activity on replacement of His at P3′ with Gly or Ser” value is reported as at most 1.3 fold.
For the compound PCGHKAY-NH2 [Peptide 9, PCGHKAY], on A. sobria ProAP [2], the kcat/KM is 7.2 ± 2.6 ×10^5 M^−1 s^−1.
On to PCGHKKY-NH2 [Peptide 7, PCGHKKY], for which the kcat/KM at A. sobria ProAP [2] is 8.2 ± 0.7 ×10^5 M^−1 s^−1.
For PCGHKPY-NH2 [Peptide 8, PCGHKPY], on A. sobria ProAP [2], the kcat/KM was 8.3 ± 3.2 ×10^5 M^−1 s^−1. For the same compound, on A. sobria ProAP [1] (role: substrate, 100 μM peptide, 4 μM ProAP, 60 min), the “disappearance of peptide on treatment with ProAP” value is listed as “complete disappearance”.
Take PCGSSKY-NH2 [Peptide 2, PCGSSKY]: the kcat/KM at A. sobria ProAP [2] was 5.8 ± 1.0 ×10^5 M^−1 s^−1.
Turning to PCHDETY-NH2 [Peptide 11, PCHDETY], the kcat/KM on A. sobria ProAP [2] is on record as 0.038 ± 0.010 ×10^5 M^−1 s^−1. Also, the “less active than peptides 1-10” value at A. sobria ProAP [2] (negative control compared with peptides 1-10) is listed as ~ 2 orders of magnitude.
In the case of PCSHKGY-NH2 [Peptide 4, PCSHKGY], the kcat/KM at A. sobria ProAP [2] is 3.2 ± 0.1 ×10^5 M^−1 s^−1.
